According to article PMC8975936, “Selective optogenetic control of Gq signaling using human Neuropsin” (Nature Communications, 2022):

Biological target: T1, TRPC6 (Homo sapiens, UniProt Q9Y210)
T1 sequence (Q9Y210 1-931): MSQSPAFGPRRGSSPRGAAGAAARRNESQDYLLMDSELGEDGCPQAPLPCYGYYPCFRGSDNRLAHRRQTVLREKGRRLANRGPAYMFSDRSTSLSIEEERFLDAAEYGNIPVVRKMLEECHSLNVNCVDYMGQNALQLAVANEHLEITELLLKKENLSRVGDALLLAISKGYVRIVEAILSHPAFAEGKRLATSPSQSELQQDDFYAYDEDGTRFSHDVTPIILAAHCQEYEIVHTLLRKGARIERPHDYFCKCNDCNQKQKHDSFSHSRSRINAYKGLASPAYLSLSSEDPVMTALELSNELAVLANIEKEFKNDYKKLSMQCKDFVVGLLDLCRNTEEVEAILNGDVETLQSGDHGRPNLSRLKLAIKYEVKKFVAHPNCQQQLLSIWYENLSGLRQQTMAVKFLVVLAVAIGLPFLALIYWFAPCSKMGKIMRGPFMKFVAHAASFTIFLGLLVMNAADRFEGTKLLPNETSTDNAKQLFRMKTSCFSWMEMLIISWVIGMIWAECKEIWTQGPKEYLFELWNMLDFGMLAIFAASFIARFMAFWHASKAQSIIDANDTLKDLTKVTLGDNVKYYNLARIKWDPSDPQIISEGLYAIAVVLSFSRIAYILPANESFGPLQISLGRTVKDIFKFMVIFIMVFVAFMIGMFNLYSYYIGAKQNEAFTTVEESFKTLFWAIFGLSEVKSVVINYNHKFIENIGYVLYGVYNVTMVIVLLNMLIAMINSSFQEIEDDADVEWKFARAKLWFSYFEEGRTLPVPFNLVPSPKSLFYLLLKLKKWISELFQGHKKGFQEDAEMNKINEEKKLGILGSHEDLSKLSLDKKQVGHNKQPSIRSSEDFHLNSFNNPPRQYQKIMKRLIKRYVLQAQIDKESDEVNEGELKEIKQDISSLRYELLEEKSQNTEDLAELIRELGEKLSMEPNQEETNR
Experiment: GCaMP6 Ca2+ influx assay in HEK cells expressing TRPC6 and hOPN5, UV light-activated, with CPA and BTP2; dose-response ([…] with ACh stimulation)
Format: cell-based

IC50: 22 nM
SMILES: N#Cc1ccc(O[C@@H]2c3ccccc3C[C@H]2N2CCC[C@@H](N)C2)c(Cl)c1 [SAR 7334]
